Key:
Anti-CD19BBζ CAR T cells = test: Metabolic modulation of CAR T cells: differentiation phenotype by flow cytometry after 9 days of culture with or without 2-DG; format: cell-based, human; conditions: FIG. 4 and FIG. 5
Procedure: The following T-cell subsets are shown: naïve-like (CCR7+CD45RO−); central memory (CCR7+CD45RO+); effector memory (CCR7−CD45RO+); and effector (CCR7−CD45RO−). Anti-CD19BBζ CAR T cells were generated as in the presence or absence of the glycolysis inhibitor 2-deoxyglucose (2-DG; Sigma-Aldrich). Following 9 days of culture, the differentiation phenotype of these cells was determined by flow cytometry. CAR+T-cells were sorted on the FACSAria II cell sorter (BD Biosciences) and combined 1:1 with irradiated K562 cells engineered to express CD19 (K562-CD19). CTL019cells were re-stimulated ×3 with K562-CD19 targets. During the proliferation assay, absolute cell counts were obtained using the Luna automated cell counter (Logos Biosystems).

STAT3 (pY705) = target: T1, STAT3 (pY705) (Homo sapiens, UniProt P40763); test: Measurement of pSTAT3 by Phosflow intracellular staining; format: cell-based
T1 construct: CTL019 cells from CLL patient infusion products were thawed and stimulated with anti-idiotypic antibody-coated beads or mock beads; endogenous in cells; host or cells: CTL019 (anti-CD19 4-1BB/CD3zeta CAR) T cells made from autologous T cells of CLL patients; in some experiments FACS-sorted CD8+ T cell subsets
T1 sequence (P40763 whole entry, the tested form may be a part): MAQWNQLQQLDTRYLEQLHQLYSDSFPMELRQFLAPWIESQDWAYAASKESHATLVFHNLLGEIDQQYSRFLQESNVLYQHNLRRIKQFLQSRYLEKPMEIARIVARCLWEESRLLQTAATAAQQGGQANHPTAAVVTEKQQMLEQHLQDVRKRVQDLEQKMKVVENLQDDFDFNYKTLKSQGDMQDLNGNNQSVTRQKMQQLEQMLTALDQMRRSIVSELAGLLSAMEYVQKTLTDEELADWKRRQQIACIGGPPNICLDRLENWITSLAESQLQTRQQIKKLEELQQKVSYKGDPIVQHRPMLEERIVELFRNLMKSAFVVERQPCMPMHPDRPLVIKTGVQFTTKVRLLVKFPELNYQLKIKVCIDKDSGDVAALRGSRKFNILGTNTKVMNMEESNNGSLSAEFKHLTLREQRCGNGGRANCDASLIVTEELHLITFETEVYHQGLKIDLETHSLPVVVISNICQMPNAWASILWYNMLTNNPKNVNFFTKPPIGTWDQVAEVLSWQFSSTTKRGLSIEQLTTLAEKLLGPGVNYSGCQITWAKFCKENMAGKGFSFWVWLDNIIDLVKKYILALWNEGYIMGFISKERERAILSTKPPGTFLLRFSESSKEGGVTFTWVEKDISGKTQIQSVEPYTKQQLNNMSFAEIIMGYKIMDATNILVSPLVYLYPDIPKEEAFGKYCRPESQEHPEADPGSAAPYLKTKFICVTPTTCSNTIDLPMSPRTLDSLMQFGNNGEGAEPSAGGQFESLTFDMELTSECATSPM
Procedure: FIGS. 7A-7D show IL-6/STAT3 pathway enrichment in CAR T cells. […] Graphs show mean with s.e.m. […] Bars represent the mean and s.e.m. […] Pooled data from patients with highly functional (CR, n=3; PRTD, n=2) versus poorly functional (PR, n=3; NR, n=11) CAR T cells is shown in the box plots (right panel). Whiskers represent min. to max.; boxes represent 25-75 percentiles; the middle line indicates the median. The change in fluorescence intensity (MFI) was calculated by subtracting the […].
FIGS. 11A-11B show levels of pSTAT3 in CD27+ PD-1− CD8 T cells in response to IL-6. […] Summary of IL-6-induced pSTAT3 levels in CD8+ T cell subsets defined by CD27 and PD-1 expression from n=4 different subjects is shown in the right panel. The change in mean fluorescence intensity (AMFI) was determined by subtracting the […].
(§1) CTL019 cells from CLL patient infusion products were thawed and stimulated with anti-idiotypic antibody-coated beads or mock beads. […] The ability of Stattic to inhibit STAT3 signaling was assessed by Phosflow staining as described above. […] Absolute cell numbers and viability were simultaneously measured during the course of CAR T cell expansion using the Luna automated cell counter (Logos Biosystems).

CTL019 cells = test: Serial re-stimulation assay with irradiated K562-CD19 cells: CTL019 cells made with or without Stattic or recombinant IL-6 (cell numbers and viability); format: cell-based, human; conditions: exogenous IL-6 added to culture media during manufacturing of CTL019 cells; FIG. 9
Procedure: FIGS. 8A-8C show inhibition of the STAT3 pathway in CAR T cells. […] CAR-specific stimulations were performed in the presence or absence of 5 μM Stattic, a small molecule inhibitor of STAT3 activation. […] CAR T cells from this representative subject were then serially re-stimulated with K562 cells engineered to express CD19 on days 0, 7 and 12 of the culture, as indicated by the arrows.
CTL019 cells from this representative subject were then serially re-stimulated with K562 cells engineered to express CD19 or mesothelin (negative control) on days 0, 7, and 12 of the culture, as indicted by the arrows.
as §1, with “beads. For some experiments, cells were stimulated for 10 minutes with recombinant human IL-6 (Miltenyi Biotec.) at a final concentration of 10 ng/mL. In cell subset evaluation experiments, populations of interest were stained for surface markers and sorted on a FACSAria II cell sorter (BD Biosciences) prior to acute stimulation with IL-6.” for “beads.”

Row | Compound | effector differentiation (Anti-CD19BBζ CAR T cells; CAR T cells cultured 9 days in presence vs absence of 2-DG) | frequencies of CAR T cells with a central memory phenotype (Anti-CD19BBζ CAR T cells; CCR7+CD45RO+, cultured 9 days in presence vs absence of 2-DG) | pSTAT3 activity (STAT3 (pY705); exogenous IL-6 added to culture media during manufacturing of CTL019 cells) | pSTAT3 in response to IL-6 stimulation (STAT3 (pY705); sorted CD27+PD-1− CD8+ subset, recombinant IL-6 10 ng/ml, FIG. 11A) | absolute numbers of CAR T cells following repeated stimulation with CD19-expressing tumor targets (CTL019 cells) | expansion capacity following repeated stimulation with CD19-expressing tumor targets (CTL019 cells)
1 | OC[C@H]1O[C@H](O)C[C@@H](O)[C@@H]1O [2-DG, (4R,5S,6R)-6-(hydroxymethyl)oxane-2,4,5-triol] | decreased | increased | – | – | – | –
2 | IL-6: recombinant human IL-6 (Miltenyi Biotec.), a Stat3 activator | – | – | Increasing | upregulates | elevated | elevated

From patent US20200370012A1, “METHODS OF MAKING CHIMERIC ANTIGEN RECEPTOR-EXPRESSING CELLS” (Novartis AG, priority 2017, published 2020)
